# Tests used:
# c-Met [1] = molecular target: T1, c-Met (Homo sapiens, UniProt P08581); experiment: Western blot of c-Met activation (phospho-c-Met) by HGF in cancer cell lines; type: cell-based; design: endogenous in cells; host or cells: DU145, PC3, MDA-MB-231, HCC1806
# Description: (§1) Western blot was used to analyze pMet expression. […] Western blot was used to analyze the indicated proteins.
# (§2) Western blot was used to analyze the indicated proteins.
# as §2
# (§3) Western blot analysis: Cells were grown to ˜70% confluency prior to treatment. Cells were serum-starved in serum-free media for 30 minutes prior to treatment in complete media or serum-free media for the indicated times. Cell lysates were collected in Laemmli (125 mM Tris, 4% SDS, 0.01% bromophenol blue, 30% sucrose) containing 0.5% β-mercaptoethanol and boiled ˜8 minutes. Primary antibodies include: phospho-c-Met (Y1234/1235), phospho-Akt (S473), pEGFR […], pIGF-IRβ (Y1135/1136) (Cell Signaling Technology; Beverly, Mass.); α-actin (Sigma-Aldrich), c-Met (C-28) (Life Technologies). Secondary antibodies include: horseradish peroxidase-conjugated anti-rabbit and anti-mouse (GE Healthcare; Pittsburgh, Pa.). ECL 2 was used for chemiluminescent detection (Thermo Scientific; Rockford, Ill.). Densitometry was calculated using ImageJ (NIH).
# EGFR = molecular target: T2, EGFR (Homo sapiens, UniProt P00533); experiment: Western blot of EGFR activation by EGF in DU145 cells; type: cell-based; conditions: 4 μM DIDS or 25 μM H2DIDS; DU145, 100 ng/ml EGF 20 min
# T2 construct: endogenous in cells; host or cells: DU145
# Description: as §3
# IGFR = molecular target: T3, IGFR (Homo sapiens, UniProt P08069); experiment: Western blot of IGFR activation by IGF in DU145 cells; type: cell-based; conditions: 4 μM DIDS or 25 μM H2DIDS; DU145, 100 ng/ml IGF 20 min
# T3 construct: endogenous in cells; host or cells: DU145
# Description: as §3
# DU145 cells [2] = experiment: Scattering assay; type: cell-based; conditions: 4 μM DIDS or 25 μM H2DIDS
# Description: (§4) Cells were fixed and stained for actin. Representative images are shown. […] Data are shown as mean±S.E.M.; n=3.
# Cells were fixed and stained for actin. Representative images are shown.
# Scattering assay: DU145 cells were grown to ˜50% confluency. […] Cells were fixed with 4% paraformaldehyde and stained with Oregon Green 488 phalloidin (Invitrogen; Carlsbad, Calif.). Images were acquired on an Eclipse TE300 inverted microscope (Nikon; Tokyo, Japan) with NIS Elements version 4.13.04 software. Presented images were taken using a 10× objective.
# DU145 cells [3] = experiment: Wound healing; type: cell-based
# Description: as §4
# (§5) For invasion (FIGS. 4C and 4D), wounded cells were overlaid with Matrigel diluted 1:5 in serum-free media; n=3.
# (§6) Wound healing and invasion: DU145 cells were grown to ˜100% confluency prior to wounding with the IncuCyte™ WoundMaker™ (Essen Bioscience; Ann Arbor, Mich.) and washed once with complete media. For invasion, cells were covered with Matrigel diluted 1:5 in serum-free RPMI following wounding. […] Images were taken every 4 hours with the IncuCyte™ ZOOM imaging system (Essen Bioscience). Quadruplicate replicates were used in each experiment. Data are presented as percent wound density ±standard error of the mean (S.E.M.).
# DU145 cells [4] = experiment: Invasion through Matrigel; type: cell-based; conditions: indicated concentrations; 33 ng/mL HGF; Matrigel 1:5
# Description: as §5, §6
# Cells = experiment: 2D proliferation (Cell Titer Blue); type: cell-based; conditions: 24-72 hours
# Description: A TO timepoint was also measured. For each timepoint, cells were exposed to Cell Titer Blue reagent (Promega) for 1 hour at 37° C. 5% CO2. Experiments were performed with quadruplicate replicates. Fluorescence was measured using a BioTek Synergy 4 plate reader with Gen5 software.
# DU145 spheroids = experiment: 3D spheroid proliferation; type: cell-based; conditions: 33 ng/mL HGF, Matrigel, 72 hours
# Description: Data are shown as the percent change in growth from T=0 to T=72 hours. For each of the six independent variables in each bar graph, a representative image at the 72 hour time point is shown. The six corresponding images below each respective bar graph
# 3D spheroid proliferation: Prior to seeding, cells were incubated with 2.5 ng/μl CellTracker Red (Life Technologies) in complete DMEM lacking Phenol Red for 5 minutes at room temperature then centrifuged at 1000 RPM for 5 minutes. […] The mixture of cells, treatments, and Matrigel in complete media was seeded at 2000 cells/well in a 96 well plate. The plate was centrifuged at 1000 RPM for 3 minutes to collect the cells into the bottom of the plate. Spheroid growth was imaged for up to 80 hours and analyzed for average red object area using the IncuCyte™ ZOOM software. Data are shown as percent change in spheroid growth between TO and […] with HGF normalized to 100% change in growth. Images were captured by the IncuCyte™ ZOOM imaging system and representative 10× images are shown.
# wild-type c-Met = wild-type c-Met (Homo sapiens, UniProt P08581); experiment: Phosphorylation inhibition assay (Z′-LYTE Kinase Assay-Tyr6 Peptide), wild-type c-Met; type: biochemical
# Description: as §1
# Phosphorylation inhibition assay: Z′-LYTE™ Kinase Assay-Tyr6 Peptide kit (Invitrogen) was used to assess the ability of tested compounds to inhibit c-Met phosphorylation. […] After 1 hour incubation at room temperature, 10 μl development solution containing site-specific protease was added to each well. Incubation was continued for 1 hour. The reaction was then stopped, and the fluorescent signal ratio of 445 nm (coumarin)/520 nm (fluorescein) was determined on a plate reader (BioTek FLx800™), which reflects the peptide substrate cleavage status and/or the kinase inhibitory activity in the reaction. […] The IC50 value for each compound was calculated by nonlinear regression of log concentration versus % c-Met phosphorylation ±S.E.M., implemented in GraphPad Prism version 5.0 (GraphPad Software, CA, USA).
# c-Met [5] = molecular target: T1, c-Met; experiment: Western blot of pMet in c-Met amplified H1993 lung cancer cells without HGF; type: cell-based; design: endogenous in cells; conditions: 5 μM compound; no HGF, constitutive c-Met activation
# Description: as §1
# H1993 cells have c-Met amplification such that they have high levels of pMet, even in the absence of HGF, due to constitutive c-Met dimerization and autophosphorylation.
# as §3
# Sequence of wild-type c-Met (P08581 25-1390): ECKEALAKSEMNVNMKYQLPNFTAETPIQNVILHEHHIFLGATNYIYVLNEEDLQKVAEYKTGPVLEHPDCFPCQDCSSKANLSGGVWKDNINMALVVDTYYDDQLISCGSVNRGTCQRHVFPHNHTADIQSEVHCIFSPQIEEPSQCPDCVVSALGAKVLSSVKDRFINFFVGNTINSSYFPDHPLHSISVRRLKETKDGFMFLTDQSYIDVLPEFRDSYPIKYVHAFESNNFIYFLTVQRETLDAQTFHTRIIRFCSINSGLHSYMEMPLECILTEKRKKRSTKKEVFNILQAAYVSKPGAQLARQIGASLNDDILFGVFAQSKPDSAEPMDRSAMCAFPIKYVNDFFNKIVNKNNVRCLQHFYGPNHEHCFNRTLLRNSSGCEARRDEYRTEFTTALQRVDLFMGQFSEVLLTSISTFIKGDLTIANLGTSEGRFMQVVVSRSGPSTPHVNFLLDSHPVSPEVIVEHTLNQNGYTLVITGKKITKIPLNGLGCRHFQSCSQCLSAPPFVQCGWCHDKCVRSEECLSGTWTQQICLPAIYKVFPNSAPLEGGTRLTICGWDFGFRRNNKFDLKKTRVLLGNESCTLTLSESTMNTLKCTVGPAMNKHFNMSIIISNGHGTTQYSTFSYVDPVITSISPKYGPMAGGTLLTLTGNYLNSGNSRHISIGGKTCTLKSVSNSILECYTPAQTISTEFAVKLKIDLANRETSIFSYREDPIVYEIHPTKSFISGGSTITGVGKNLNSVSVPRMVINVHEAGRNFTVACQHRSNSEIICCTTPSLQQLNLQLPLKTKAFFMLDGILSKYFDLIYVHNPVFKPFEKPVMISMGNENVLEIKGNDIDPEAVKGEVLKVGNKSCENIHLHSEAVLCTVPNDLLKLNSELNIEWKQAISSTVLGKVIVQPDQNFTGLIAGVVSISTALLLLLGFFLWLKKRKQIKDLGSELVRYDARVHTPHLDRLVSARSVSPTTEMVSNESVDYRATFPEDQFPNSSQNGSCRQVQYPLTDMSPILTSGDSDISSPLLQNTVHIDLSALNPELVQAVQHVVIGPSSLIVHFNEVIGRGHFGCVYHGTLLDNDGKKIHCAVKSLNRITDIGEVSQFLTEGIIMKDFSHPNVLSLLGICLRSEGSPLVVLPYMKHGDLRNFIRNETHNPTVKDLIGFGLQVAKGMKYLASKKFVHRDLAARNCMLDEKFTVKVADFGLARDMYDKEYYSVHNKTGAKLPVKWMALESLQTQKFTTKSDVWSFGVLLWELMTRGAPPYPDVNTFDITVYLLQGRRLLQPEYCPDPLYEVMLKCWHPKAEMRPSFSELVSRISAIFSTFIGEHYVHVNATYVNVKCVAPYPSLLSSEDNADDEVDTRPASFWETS
# T1 sequence (P08581 25-1390): as above
# T2 sequence (P00533 25-1210): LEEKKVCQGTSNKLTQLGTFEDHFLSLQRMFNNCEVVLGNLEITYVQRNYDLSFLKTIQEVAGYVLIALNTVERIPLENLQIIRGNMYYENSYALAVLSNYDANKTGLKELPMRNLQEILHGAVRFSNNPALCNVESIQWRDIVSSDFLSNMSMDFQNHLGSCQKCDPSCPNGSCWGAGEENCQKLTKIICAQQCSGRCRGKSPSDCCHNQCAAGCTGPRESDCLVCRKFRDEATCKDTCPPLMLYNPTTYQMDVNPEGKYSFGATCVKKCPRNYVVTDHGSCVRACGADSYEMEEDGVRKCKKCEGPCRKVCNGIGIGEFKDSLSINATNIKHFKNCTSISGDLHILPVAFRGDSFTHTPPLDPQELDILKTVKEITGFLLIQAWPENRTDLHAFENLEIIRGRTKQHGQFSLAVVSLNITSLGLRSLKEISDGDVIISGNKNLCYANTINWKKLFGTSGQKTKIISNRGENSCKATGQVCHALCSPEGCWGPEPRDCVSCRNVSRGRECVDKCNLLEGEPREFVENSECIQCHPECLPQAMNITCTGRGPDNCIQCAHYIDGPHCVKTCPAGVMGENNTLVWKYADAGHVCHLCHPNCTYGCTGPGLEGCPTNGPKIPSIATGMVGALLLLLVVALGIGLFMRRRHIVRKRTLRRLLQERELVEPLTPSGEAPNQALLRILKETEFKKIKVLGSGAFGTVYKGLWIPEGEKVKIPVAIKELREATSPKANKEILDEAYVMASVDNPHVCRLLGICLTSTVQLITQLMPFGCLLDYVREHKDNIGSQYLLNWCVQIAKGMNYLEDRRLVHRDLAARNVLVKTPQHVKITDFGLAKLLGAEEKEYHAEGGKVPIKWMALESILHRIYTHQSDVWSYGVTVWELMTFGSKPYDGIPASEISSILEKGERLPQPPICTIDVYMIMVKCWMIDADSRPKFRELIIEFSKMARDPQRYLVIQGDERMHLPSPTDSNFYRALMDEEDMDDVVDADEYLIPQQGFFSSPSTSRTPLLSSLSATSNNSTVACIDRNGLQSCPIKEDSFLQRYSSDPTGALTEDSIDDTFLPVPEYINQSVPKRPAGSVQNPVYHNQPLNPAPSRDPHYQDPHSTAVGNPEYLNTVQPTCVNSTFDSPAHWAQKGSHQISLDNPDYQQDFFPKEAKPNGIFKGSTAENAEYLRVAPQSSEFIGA
smiles,measurement,setting,value
"O=[N+]([O-])c1ccc(C=Cc2ccc([N+](=O)[O-])cc2S(=O)(=O)O)c(S(=O)(=O)O)c1 [DNDS, 4,4′-dinitrostilbene-2,2′-disulfonic acid]",inhibition at 2000 µM,"c-Met [1]; DU-145, read-out: inhibition of c-Met",~90%
"O=S(=O)(O)c1cc(N=C=S)ccc1CCc1ccc(N=C=S)cc1S(=O)(=O)O [H2DIDS, 4,4′-Diisothiocyanatodihydrostilbene-2,2′-disulfonic acid]",EGFR activation,EGFR,do not significantly reduce
same,IGFR activation,IGFR,do not significantly reduce
same,HGF-induced cell scattering,DU145 cells [2]; 33 ng/ml HGF overnight,able to reduce HGF-induced
same,EGF-induced cell scattering,DU145 cells [2]; 100 ng/ml EGF overnight,not EGF-induced
same,HGF-induced wound healing,"DU145 cells [3]; 4 μM DIDS or 25 μM H2DIDS, 33 ng/ml HGF",significantly reduced
same,EGF-mediated wound healing,"DU145 cells [3]; 4 μM DIDS or 25 μM H2DIDS, 100 ng/ml EGF",minimal effects
same,"HGF-induced wound healing, dose response","DU145 cells [3]; indicated concentrations, 33 ng/mL HGF",reduce HGF-induced wound healing in a dose response manner
same,HGF-induced invasion through Matrigel,DU145 cells [4],inhibited HGF-induced invasion through Matrigel in a dose-dependent manner
same,proliferation in complete media in 2D assay,Cells; complete media,minimal effects
same,serum-free proliferation in 2D assay,Cells; serum-free media,minimal effects
same,lowest concentration with some inhibitory effects on HGF-induced spheroid growth,DU145 spheroids,40 nM
same,decrease of HGF-induced DU145 spheroid growth,DU145 spheroids; 5 μM compound,~60%
same,"IC50, wild-type c-Met","wild-type c-Met; cell-free kinase assay, 200 μM ATP",low micromolar range
same,IC50,"wild-type c-Met; cell-free kinase assay, 200 μM ATP, read-out: IC50, wild-type c-Met",3.6 µM
same,pMet levels in H1993 cells,c-Met [5],much less significant effects
same,reduction of c-Met activation,"c-Met [1]; 8 μM compound, DU145 cells, 33 ng/ml HGF 20 min, serum-free, Western blot densitometry",~90%
same,effective concentrations for reducing c-Met activation in 10% FBS,"c-Met [1]; DU145 cells, 33 ng/ml HGF 20 min, 10% FBS RPMI, compared with serum-free",slightly higher effective concentrations
same,c-Met inhibitory effective doses,c-Met [1]; multiple cancer cell lines (summary),low micromolar range
"CC(=O)Nc1ccc(C=Cc2ccc(N=C=S)cc2S(=O)(=O)O)c(S(=O)(=O)O)c1 [SITS, 4-acetamido-4′-isothiocyanatostilbene-2,2′-disulfonic acid]",inhibition at 250 µM,"c-Met [1]; DU-145, 250 μM compound, DU145 cells, 33 ng/ml HGF 20 min, serum-free",~90%
"Cc1[nH]c(/C=C2\C(=O)Nc3ccc(S(=O)(=O)N(C)c4cccc(Cl)c4)cc32)c(C)c1C(=O)N1CCN(C)CC1 [SU11274, reference compound]",reduction of c-Met phosphorylation,"wild-type c-Met; 500 nM compound, kinase assay",~70%
same,pMet levels in H1993 cells,c-Met [5],ameliorated pMet levels

# Reference: patent US10980765B2, “Isothiocyanatostilbenes as a novel method and product for treating cancer” (BOARD OF SUPERVISORS OF LOUISIANA STATE UNIVERSITY AND …, priority 2015, dated 2021)
